In ChEMBL document CHEMBL5727750, “Heterocyclic compounds as immunomodulators” (2020):
pEC50: −log10 of the molar value. Where “and” joins values, the source holds several entries; their conditions need not be identical. Identical values can stand only once.

test: Nuclear Factor of Activated T-Cells (NFAT) Assay: PD-L1 aAPC/CHO-Klcells (Promega) were maintained in F-12 medium with addition of 10% FBS, 200 μg/ml Hygromycin B, 250 μg/ml Geneticin (G418). Jurkat-PD-1-NFAT effector cells (Promega) were cultured in RPMI 1640 medium supplemented with 10% FBS, 100 μg/ml Hygromycin B, 500 μg/ml G418. The culture media of PD-L1 aAPC/CHO-K1 cells were first replaced with assay medium (RPMI1640 medium with 1% FBS). The PD-L1 aAPC/CHO-K1 cells were then added in a white 384-well white clear bottom assay plate (CELLCOAT® Tissue Culture Plates, Greiner Bio-One) at 8000 per well in 10 μL assay medium. Test compounds were prepared by serial dilution in DMSO and 0.8 μL test compounds in DMSO were first transferred to the 384 REMP plate well (Thermofisher) by PlateMate Plus (Thermofisher) followed with addition of 50 μL plating medium. 5 μL compounds in the assay medium were transferred to the cells with 0.4% DMSO in the final assay at 2 μM. After removing the culture media, 10,000 Jurkat-PD-1-NFAT effector cells in 5 μL assay medium was dispensed into each well. The assay plate was incubated at 37° C., 5% CO2 for 24 hours. After the assay plate was equilibrated to room temp for 15 minutes, 20 µL/well of Bio-Glo™ reagent (Promega) were added. After 8 minutes incubation at room temperature, luminescence was read at with Pherastar microplate reader (BMG Labtech). The fold of induction (FOI) was calculated based on the ratio of luminescence normalized to the DMSO wells within each assay plate. The maximum percentage of induction was reported based on the ratio between the highest FOI of each compound and the maximum FOI of control compound within each assay plate. Wells with DMSO were served as the negative controls and wells containing control compound with the highest FOI were used as positive controls. EC50 determination was performed by fitting the curve of percent control activity versus the log of the compound concentration using the GraphPad Prism 6.0 software.

| Structure (SMILES) | pEC50 | EC50 |
| --- | --- | --- |
| Cc1c(Nc2nc(N)nc3cc(CN4CC[C@@H](O)C4)cnc23)cccc1-c1cccc(-c2nc3cc(CN4CCC(C(=O)O)CC4)cc(C#N)c3o2)c1C | 7.00 to 8.00 |  |
| Cc1c(Nc2nc(C(F)F)nc3cc(CN4CC[C@@H](O)C4)cnc23)cccc1-c1cccc(-c2nc3cc(CN4CCC(C)(C(=O)O)CC4)cc(C#N)c3o2)c1C | 7.00 to 8.00 |  |
| Cc1nc(Nc2cccc(-c3cccc(-c4nc5cc(CN6CCC(C(=O)O)CC6)cc(C#N)c5o4)c3C)c2C)c2ncc(CNC[C@H](C)O)cc2n1 |  | in the range around 55 nM |
| Cc1c(Nc2nc(CO)nc3cc(CN4CC[C@@H](O)C4)cnc23)cccc1-c1cccc(-c2nc3cc(CN4CCC(C(=O)O)CC4)cc(C#N)c3o2)c1C | 7.00 to 8.00 |  |
| Cc1c(Nc2nc(C(F)F)nc3cc(CN4CC[C@](C)(O)C4)cnc23)cccc1-c1cccc(-c2nc3cc(CN4CCC(C(=O)O)CC4)cc(C#N)c3o2)c1C | > 8.00 |  |
| Cc1c(Nc2nc(C(F)F)nc3cc(CN4CC[C@@H](O)C4)cnc23)cccc1-c1cccc(-c2nc3cc(CN4CCC(C(=O)N(C)C)CC4)cc(C#N)c3o2)c1C | 7.00 to 8.00 |  |
| Cc1nc(Nc2cccc(-c3cccc(-c4nc5cc(CN6CC[C@@H](C(=O)O)C6)cc(C#N)c5o4)c3C)c2C)c2ncc(CN3CC[C@](C)(O)C3)cc2n1 | 7.00 to 8.00 |  |
| Cc1nc(Nc2cccc(-c3cccc(-c4nc5cc(CN6CC[C@@H](C(=O)O)C6)cc(C#N)c5o4)c3C)c2C)c2ncc(CNC[C@H](C)O)cc2n1 | 7.00 to 8.00 |  |
| Cc1c(Nc2nc(C(F)F)nc3cc(CN4CC[C@@H](O)C4)cnc23)cccc1-c1cccc(-c2nc3cc(CN4CC[C@@H](C(=O)O)C4)cc(C#N)c3o2)c1C |  | 10 nM and 100 nM and in the range around 55 nM |
| Cc1c(Nc2nc(C(F)F)cc3cc(CN4CC[C@@H](O)C4)cnc23)cccc1-c1cccc(-c2nc3cc(CN4CC[C@@](C)(C(=O)O)C4)cc(C#N)c3o2)c1C | > 8.00 |  |
| Cc1nc(Nc2cccc(-c3cccc(-c4nc5cc(CN6CCC(C(=O)O)CC6)cc(C#N)c5o4)c3C)c2C)c2ncc(CN3CC[C@](C)(O)C3)cc2n1 | 7.00 to 8.00 |  |
| Cc1c(Nc2nc(C(F)F)nc3cc(CN4CC[C@@H](O)C4)cnc23)cccc1-c1cccc(-c2nc3cc(CN4CC[C@@](C)(C(=O)O)C4)cc(C#N)c3o2)c1C |  | 10 nM and 100 nM and in the range around 55 nM |
| Cc1nc(Nc2cccc(-c3cccc(-c4nc5cc(CN6CC[C@@](C)(C(=O)O)C6)cc(C#N)c5o4)c3C)c2C)c2ncc(CN[C@@H](C)CO)cc2n1 |  | in the range around 55 nM |
| Cc1nc(Nc2cccc(-c3cccc(-c4nc5cc(CN6CC[C@@H](C(=O)O)C6)cc(C#N)c5o4)c3C)c2C)c2ncc(CN[C@@H](C)CO)cc2n1 | 7.00 to 8.00 |  |
| Cc1nc(Nc2cccc(-c3cccc(-c4nc5cc(CN6CCC(C(=O)O)CC6)cc(C#N)c5o4)c3C)c2C)c2ncc(CN3CC[C@@H](O)C3)cc2n1 | 7.00 to 8.00 |  |
| Cc1c(Nc2nc(C(F)F)nc3cc(CN4CC[C@@H](O)C4)cnc23)cccc1-c1cccc(-c2nc3cc(CN4CC[C@H](C(=O)O)C4)cc(C#N)c3o2)c1C | 7.00 to 8.00 |  |
| Cc1nc(Nc2cccc(-c3cccc(-c4nc5cc(CN6CC[C@@](C)(C(=O)O)C6)cc(C#N)c5o4)c3C)c2C)c2ncc(CNC[C@H](C)O)cc2n1 |  | in the range around 55 nM |
| CNC(=O)C1CCN(Cc2cc(C#N)c3oc(-c4cccc(-c5cccc(Nc6nc(C(F)F)nc7cc(CN8CC[C@@H](O)C8)cnc67)c5C)c4C)nc3c2)CC1 | > 8.00 |  |
| Cc1c(Nc2nc(C3CC3)nc3cc(CN4CC[C@@H](O)C4)cnc23)cccc1-c1cccc(-c2nc3cc(CN4CC[C@@H](C(=O)O)C4)cc(C#N)c3o2)c1C |  | in the range around 55 nM |
| Cc1c(Nc2nc(C(F)F)nc3cc(CN4CC[C@@](C)(O)C4)cnc23)cccc1-c1cccc(-c2nc3cc(CN4CCC(C(=O)O)CC4)cc(C#N)c3o2)c1C | > 8.00 |  |
| Cc1nc(Nc2cccc(-c3cccc(-c4nc5cc(CN6CC[C@@H](C(=O)O)C6)cc(C#N)c5o4)c3C)c2C)c2ncc(CN3CC[C@@](C)(O)C3)cc2n1 | 7.00 to 8.00 |  |
| Cc1nc(Nc2cccc(-c3cccc(-c4nc5cc(CN6CC[C@@](C)(C(=O)O)C6)cc(C#N)c5o4)c3C)c2C)c2ncc(CN3CC[C@@](C)(O)C3)cc2n1 | 7.00 to 8.00 |  |
| Cc1c(Nc2nc(C(F)F)nc3cc(CN4CC[C@@H](O)C4)cnc23)cccc1-c1cccc(-c2nc3cc(CN4CC[C@](C)(C(=O)O)C4)cc(C#N)c3o2)c1C | > 8.00 |  |
| Cc1nc(Nc2cccc(-c3cccc(-c4nc5cc(CN6CCC(C(=O)O)CC6)cc(C#N)c5o4)c3C)c2C)c2ncc(CN3CC[C@@](C)(O)C3)cc2n1 | 7.00 to 8.00 |  |
| Cc1nc(Nc2cccc(-c3cccc(-c4nc5cc(CN6CC[C@@](C)(C(=O)O)C6)cc(C#N)c5o4)c3C)c2C)c2ncc(CN3CC[C@](C)(O)C3)cc2n1 | 7.00 to 8.00 |  |
| Cc1c(Nc2nc(C(F)F)nc3cc(CN4CC[C@@H](O)C4)cnc23)cccc1-c1cccc(-c2nc3cc(CN4CCC(C(=O)NCCC(=O)O)CC4)cc(C#N)c3o2)c1C | 7.00 to 8.00 |  |
| Cc1nc(Nc2cccc(-c3cccc(-c4nc5cc(CN6CC[C@@](C)(C(=O)O)C6)cc(C#N)c5o4)c3C)c2C)c2ncc(CN3CC[C@@H](O)C3)cc2n1 | 7.00 to 8.00 |  |
| Cc1nc(Nc2cccc(-c3cccc(-c4nc5cc(CN6CC[C@@H](C(=O)O)C6)cc(C#N)c5o4)c3C)c2C)c2ncc(CN3CC[C@@H](O)C3)cc2n1 | 7.00 to 8.00 and > 8.00 |  |
| Cc1nc(Nc2cccc(-c3cccc(-c4nc5cc(CN6CCC(C(=O)O)CC6)cc(C#N)c5o4)c3C)c2C)c2ncc(CN[C@@H](C)CO)cc2n1 |  | in the range around 55 nM |
| Cc1c(Nc2nc(C(F)F)nc3cc(CN4CC[C@@H](O)C4)cnc23)cccc1-c1cccc(-c2nc3cc(CN4CCC(C(=O)O)CC4)cc(C#N)c3o2)c1C |  | in the range around 55 nM |
